10 compounds from US9481676B2, “Azepino[4,5-B]indoles and methods of use” (Medivation Technologies, Inc., priority 2008, dated 2016) can be followed below.

For test [1], the target named is T1, human recombinant serotonin (5-Hydroxytryptamine) 5-HT2A receptor (Homo sapiens, UniProt P28223).
T1 construct: expressed in transfected cells; host or cells: CHO-K1 cells
Put plainly: Serotonin 5-HT2A radioligand binding ([3H]Ketanserin). Particulars: compound at 1 μM; read-out: Serotonin (1 μM) 5-HT2A, percent inhibition of specific binding. The protocol:
To evaluate in radioligand binding assays the activity of compounds of the invention, human recombinant serotonin (5-Hydroxytryptamine) 5-HT2A receptor expressed in Chinese hamster ovary (CHO-K1) cells (Bonhaus, D. W. et al. Br. J. Pharmacol. 115:622, 1995; Saucier, C. and Albert, P. R., J. Neurochem. 68:1998, 1997) in a 50 mM Tris-HCl buffer, pH 7.4, was used. Compounds of the invention were incubated with 0.5 nM [^3H]Ketanserin for 60 min. at 25° C. Non-specific binding was estimated in the presence of 1 μM Mianserin. Receptor proteins were filtered and washed, the filters were then counted to determine [^3H]Ketanserin specifically bound. Compounds were screened at 1 μM or lower, using 1% DMSO as vehicle. Biochemical assay results are presented as the percent inhibition of specific binding in Table 6.

The target of test [2] is T2, human recombinant histamine H1 receptor (Homo sapiens, UniProt P35367).
T2 construct: expressed in transfected cells; host or cells: CHO cells
T2 sequence (P35367 whole entry): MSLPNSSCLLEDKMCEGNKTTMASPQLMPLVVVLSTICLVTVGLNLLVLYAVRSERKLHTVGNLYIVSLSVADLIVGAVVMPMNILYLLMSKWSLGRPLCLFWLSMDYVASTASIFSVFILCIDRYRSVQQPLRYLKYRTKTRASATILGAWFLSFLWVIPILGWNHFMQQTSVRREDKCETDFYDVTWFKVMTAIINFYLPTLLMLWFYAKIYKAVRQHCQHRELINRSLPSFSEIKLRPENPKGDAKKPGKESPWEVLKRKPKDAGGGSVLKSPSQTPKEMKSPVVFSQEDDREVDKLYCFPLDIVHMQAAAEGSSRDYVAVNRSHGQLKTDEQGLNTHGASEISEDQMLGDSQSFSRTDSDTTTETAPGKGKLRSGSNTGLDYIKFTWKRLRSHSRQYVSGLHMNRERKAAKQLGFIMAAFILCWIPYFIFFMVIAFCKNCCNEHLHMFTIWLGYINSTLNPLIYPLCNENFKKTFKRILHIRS
Put plainly: Histamine H1 radioligand binding ([3H]Pyrilamine). Particulars: compound at 1 μM; read-out: Histamine Binding (1 μM) H1, percent inhibition of specific binding. The protocol: To evaluate in radioligand binding assays the activity of compounds of the invention, human recombinant histamine H1 receptor expressed in Chinese hamster ovary (CHO) cells (De Backer, M. D. et al., Biochem. Biophys. Res. Comm. 197(3):1601, 1993) in a modified Tris-HCl buffer (50 mM Tris-HCl, pH 7.4, 2 mM MgCl2, 100 mM NaCl, 250 mM Sucrose) was used. Compounds of the invention were incubated with 1.2 nM [^3H]Pyrilamine for 180 min. at 25° C. Non-specific binding was estimated in the presence of 1 μM pyrilamine. Receptor proteins were filtered and washed, the filters were then counted to determine [^3H]Pyrilamine specifically bound. Compounds were screened at 1 μM or lower, using 1% DMSO as vehicle. Biochemical assay results are presented as the percent inhibition of specific binding in Table 6.

Test [3] concerns the target T3, human recombinant dopamine D2L receptor (Homo sapiens, UniProt P14416).
T3 construct: expressed in transfected cells; host or cells: CHO cells
The experiment in a line: Dopamine D2L radioligand binding ([3H]Spiperone). As to conditions: compound at 1 μM; read-out: Dopamine (1 μM) D2L, percent inhibition of specific binding. On the procedure:
To evaluate in radioligand binding assays the activity of compounds of the invention, human recombinant dopamine D2L receptor expressed in Chinese hamster ovary (CHO) cells (Grandy, D. K. et al. Proc. Natl. Acad. Sci. USA. 86:9762, 1989; Hayes, G. et al., Mol. Endocrinol. 6:920, 1992) in a modified Tris-HCl buffer (50 mM Tris-HCl, pH 7.4, 1.4 mM Ascorbic Acid, 0.001% BSA, 150 mM NaCl) was used. Compounds of the invention were incubated with 0.16 nM [^3H]Spiperone for 120 min. at 25° C. Non-specific binding was estimated in the presence of 10 μM Haloperidol. Receptor proteins were filtered and washed, the filters were then counted to determine [^3H]Spiperone specifically bound. Compounds were screened at 1 μM or lower, using 1% DMSO as vehicle. Biochemical assay results are presented as the percent inhibition of specific binding in Table 5.

Test [4] has as its target T4, human recombinant serotonin (5-Hydroxytryptamine) 5-HT2C receptor (Homo sapiens, UniProt P28335).
T4 construct: expressed in transfected cells; host or cells: CHO-K1 cells
T4 sequence (P28335 33-458): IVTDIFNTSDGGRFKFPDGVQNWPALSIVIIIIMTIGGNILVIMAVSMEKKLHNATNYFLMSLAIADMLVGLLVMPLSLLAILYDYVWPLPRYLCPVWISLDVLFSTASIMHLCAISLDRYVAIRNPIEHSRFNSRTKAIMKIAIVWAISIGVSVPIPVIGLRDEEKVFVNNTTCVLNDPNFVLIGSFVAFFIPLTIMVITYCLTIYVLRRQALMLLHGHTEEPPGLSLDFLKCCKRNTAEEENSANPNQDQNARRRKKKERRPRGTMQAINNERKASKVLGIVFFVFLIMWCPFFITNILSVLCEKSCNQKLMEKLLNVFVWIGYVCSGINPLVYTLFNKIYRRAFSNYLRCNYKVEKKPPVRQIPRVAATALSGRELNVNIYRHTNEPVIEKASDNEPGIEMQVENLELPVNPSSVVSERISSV
Put plainly: Serotonin 5-HT2C radioligand binding ([3H]Mesulergine). Particulars: compound at 1 μM; read-out: Serotonin (1 μM) 5-HT2C, percent inhibition of specific binding. The protocol:
To evaluate in radioligand binding assays the activity of compounds of the invention, human recombinant serotonin (5-Hydroxytryptamine) 5-HT2C receptor expressed in Chinese hamster ovary (CHO-K1) cells (Wolf, W. A. and Schutz, J. S., J. Neurochem. 69:1449, 1997) in a modified Tris-HCl buffer (50 mM Tris-HCl, pH 7.4, 0.1% Ascorbic Acid, 10 μM Pargyline) was used. Compounds of the invention were incubated with 1 nM [^3H]Mesulergine for 60 min. at 25° C. Non-specific binding was estimated in the presence of 1 μM Mianserin. Receptor proteins were filtered and washed, the filters were then counted to determine [^3H]Mesulergine specifically bound. Compounds were screened at 1 μM or lower, using 1% DMSO as vehicle. Biochemical assay results are presented as the percent inhibition of specific binding in Table 6.

Test [5] concerns the target T5, human recombinant histamine H2 receptor (Homo sapiens, UniProt P25021).
T5 construct: expressed in transfected cells; host or cells: CHO-K1 cells
The experiment in a line: Histamine H2 radioligand binding ([125I]Aminopotentidine). Particulars: compound at 1 μM; read-out: Histamine Binding (1 μM) H2, percent inhibition of specific binding. The protocol:
To evaluate in radioligand binding assays the activity of compounds of the invention, human recombinant histamine H2 receptor expressed in Chinese hamster ovary (CHO) K1 cells (Ruat, M., Proc. Natl. Acad. Sci. USA. 87(5):1658, 1990) in a 50 mM Phosphate buffer, pH 7.4 was used. Compounds of the invention were incubated with 0.1 nM [^125I]Aminopotentidine for 120 min. at 25° C. Non-specific binding was estimated in the presence of 3 μM Tiotidine. Receptor proteins were filtered and washed, the filters were then counted to determine [^125I]Aminopotentidine specifically bound. Compounds were screened at 1 μM or lower, using 1% DMSO as vehicle. Biochemical assay results are presented as the percent inhibition of specific binding in Table 6.

Test [6] deals with T6, human recombinant serotonin (5-Hydroxytryptamine) 5-HT6 receptor (Homo sapiens, UniProt P50406).
T6 construct: expressed in transfected cells; host or cells: human HeLa cells
T6 sequence (P50406 whole entry): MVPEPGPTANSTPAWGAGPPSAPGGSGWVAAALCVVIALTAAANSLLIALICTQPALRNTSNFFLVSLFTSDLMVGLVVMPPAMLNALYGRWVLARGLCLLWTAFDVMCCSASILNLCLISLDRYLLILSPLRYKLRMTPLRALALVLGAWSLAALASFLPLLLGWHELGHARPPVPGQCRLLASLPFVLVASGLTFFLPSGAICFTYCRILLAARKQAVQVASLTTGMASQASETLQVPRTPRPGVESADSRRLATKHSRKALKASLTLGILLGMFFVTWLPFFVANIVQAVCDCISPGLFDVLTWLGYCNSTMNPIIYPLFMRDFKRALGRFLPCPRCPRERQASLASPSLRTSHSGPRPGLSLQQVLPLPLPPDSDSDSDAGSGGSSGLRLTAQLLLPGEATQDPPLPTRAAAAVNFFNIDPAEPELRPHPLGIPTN
Put plainly: Serotonin 5-HT6 radioligand binding ([3H]LSD). Particulars: compound at 1 μM; read-out: Serotonin (1 μM) 5-HT6, percent inhibition of specific binding. The protocol: To evaluate in radioligand binding assays the activity of compounds of the invention, human recombinant serotonin (5-Hydroxytryptamine) 5-HT6 receptor expressed in human HeLa cells (Monsma, F. J. Jr. et al., Mol. Pharmacol. 43:320, 1993) in a modified Tris-HCl buffer (50 mM Tris-HCl, pH 7.4, 150 mM NaCl, 2 mM Ascorbic Acid, 0.001% BSA) was used. Compounds of the invention were incubated with 1.5 nM [3H]Lysergic acid diethylamide (LSD) for 120 min. at 37° C. Non-specific binding was estimated in the presence of 5 μM Serotonin (5-HT). Receptor proteins were filtered and washed, the filters were then counted to determine [3H]LSD specifically bound. Compounds were screened at 1 μM or lower, using 1% DMSO as vehicle. Biochemical assay results are presented as the percent inhibition of specific binding in Table 6.

T5 sequence (P25021 whole entry): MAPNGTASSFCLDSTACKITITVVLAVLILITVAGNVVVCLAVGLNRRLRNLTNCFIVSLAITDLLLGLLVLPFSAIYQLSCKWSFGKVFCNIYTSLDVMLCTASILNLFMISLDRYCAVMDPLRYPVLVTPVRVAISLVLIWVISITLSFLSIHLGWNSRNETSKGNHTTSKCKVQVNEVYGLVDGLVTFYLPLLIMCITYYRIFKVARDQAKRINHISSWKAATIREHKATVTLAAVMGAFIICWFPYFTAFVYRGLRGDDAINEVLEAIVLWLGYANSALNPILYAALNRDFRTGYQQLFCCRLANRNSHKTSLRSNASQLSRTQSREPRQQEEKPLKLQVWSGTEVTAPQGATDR
T1 sequence (P28223 whole entry): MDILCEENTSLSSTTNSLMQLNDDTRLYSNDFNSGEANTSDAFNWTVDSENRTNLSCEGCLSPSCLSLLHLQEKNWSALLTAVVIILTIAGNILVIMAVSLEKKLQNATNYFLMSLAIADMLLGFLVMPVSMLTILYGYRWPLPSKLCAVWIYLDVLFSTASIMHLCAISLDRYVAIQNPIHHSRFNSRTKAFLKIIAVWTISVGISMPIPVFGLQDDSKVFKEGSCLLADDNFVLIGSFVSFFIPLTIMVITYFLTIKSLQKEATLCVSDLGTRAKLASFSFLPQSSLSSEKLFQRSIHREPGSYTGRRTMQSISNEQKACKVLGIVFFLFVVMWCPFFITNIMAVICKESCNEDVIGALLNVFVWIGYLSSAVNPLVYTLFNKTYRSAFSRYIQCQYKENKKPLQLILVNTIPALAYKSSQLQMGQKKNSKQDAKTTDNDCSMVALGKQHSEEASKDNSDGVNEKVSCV
T3 sequence (P14416 whole entry): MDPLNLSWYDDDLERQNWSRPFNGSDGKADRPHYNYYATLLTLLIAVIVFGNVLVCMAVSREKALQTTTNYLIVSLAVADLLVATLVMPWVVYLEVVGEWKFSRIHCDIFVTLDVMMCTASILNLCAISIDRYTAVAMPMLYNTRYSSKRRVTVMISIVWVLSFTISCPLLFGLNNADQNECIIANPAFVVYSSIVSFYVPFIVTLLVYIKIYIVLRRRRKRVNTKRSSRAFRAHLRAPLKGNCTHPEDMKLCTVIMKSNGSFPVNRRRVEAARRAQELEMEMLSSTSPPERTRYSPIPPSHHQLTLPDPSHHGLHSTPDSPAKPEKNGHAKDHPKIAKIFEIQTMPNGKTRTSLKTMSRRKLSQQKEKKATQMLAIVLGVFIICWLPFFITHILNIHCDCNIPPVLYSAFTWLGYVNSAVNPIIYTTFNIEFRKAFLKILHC

Broadly, the inhibition is the relative decrease from the control value, in per cent. Regarding `C/C(=C\n1c2c(c3cc(Cl)ccc31)CCN(C)CC2)c1ccc(F)c(F)c1` [Compound No. 155, (E)-9-chloro-6-(2-(3,4-difluorophenyl)prop-1-enyl)-1,2,3,4,5,6-hexahydro-3-methylazepino[4,5-b]indole], the inhibition at 1 µM stood at 99% in test [1]; 93% in test [2]; 38% in test [3]; 98% in test [4]; 92% in test [5]; 101% in test [6].
Take `C/C(=C\n1c2c(c3cc(Cl)ccc31)CCN(C)CC2)c1cccc(F)c1` [Compound No. 250, (E)-9-chloro-6-(2-(3-fluorophenyl)prop-1-enyl)-3-methyl-1,2,3,4,5,6-hexahydroazepino[4,5-b]indole]: the inhibition at 1 µM in test [1] was 100%; in test [2], 93%; in test [3], 15%; in test [4] it was 99%; in test [5] it was 85%; in test [6], 99%.
`C/C(=C/n1c2c(c3cc(C)ccc31)CCN(C)CC2)c1ccccc1F` [Compound No. 240, (Z)-6-(2-(2-fluorophenyl)prop-1-enyl)-3,9-dimethyl-1,2,3,4,5,6-hexahydroazepino[4,5-b]indole]: the inhibition at 1 µM in test [1] worked out at 98%; in test [2], 96%; in test [3], 57%; in test [4] it was 97%; in test [5], 87%; in test [6], 102%.
In the case of `C/C(=C\n1c2c(c3cc(Cl)ccc31)CCN(C)CC2)c1ccccc1Cl` [Compound No. 245, (E)-9-chloro-6-(2-(2-chlorophenyl)prop-1-enyl)-3-methyl-1,2,3,4,5,6-hexahydroazepino[4,5-b]indole], the inhibition at 1 µM was 99% in test [1]; 96% in test [2]; 16% in test [3]; 99% in test [4]; 88% in test [5]; 97% in test [6].
For `C/C(=C/n1c2c(c3cc(Cl)ccc31)CCN(C)CC2)c1cccc(F)c1` [Compound No. 249, (Z)-9-chloro-6-(2-(3-fluorophenyl)prop-1-enyl)-3-methyl-1,2,3,4,5,6-hexahydroazepino[4,5-b]indole], the inhibition at 1 µM turned out to be 100% in test [1]; 98% in test [2]; 35% in test [3]; 98% in test [4]; 97% in test [5]; 101% in test [6].
With `COc1ccc(C#Cn2c3c(c4cc(C)ccc42)CCN(C)CC3)cc1F` [Compound No. 284, 6-((3-fluoro-4-methoxyphenyl)ethynyl)-3,9-dimethyl-1,2,3,4,5,6-hexahydroazepino[4,5-b]indole], the inhibition at 1 µM came out at 94% in test [1]; 11% in test [2]; 11% in test [3]; 100% in test [4]; 4% in test [5]; 42% in test [6].
As for `COc1ccc(/C(C)=C/n2c3c(c4cc(C)ccc42)CCN(C)CC3)cc1F` [Compound No. 179, (E)-6-(2-(3-fluoro-4-methoxyphenyl)prop-1-enyl)-1,2,3,4,5,6-hexahydro-3,9-dimethylazepino[4,5-b]indole], the inhibition at 1 µM in test [1] stood at 98%; in test [2] it was 45%; in test [3], 23%; in test [4], 100%; in test [5], 88%; in test [6], 77%.
On to `COc1ccc(/C(C)=C/n2c3c(c4cc(Cl)ccc42)CCN(C)CC3)cc1` [Compound No. 160, (E)-9-chloro-1,2,3,4,5,6-hexahydro-6-(2-(4-methoxyphenyl)prop-1-enyl)-3-methylazepino[4,5-b]indole], for which the inhibition at 1 µM in test [1] was 94%; in test [2] it was 87%; in test [3], 17%; in test [4], 103%; in test [5], 91%; in test [6], 99%.
For `COc1ccc(/C(C)=C/n2c3c(c4cc(Cl)ccc42)CCN(C)CC3)cc1F` [Compound No. 157, (E)-9-chloro-6-(2-(3-fluoro-4-methoxyphenyl)prop-1-enyl)-1,2,3,4,5,6-hexahydro-3-methylazepino[4,5-b]indole], the inhibition at 1 µM in test [1] stood at 98%; in test [2], 68%; in test [3], 24%; in test [4], 101%; in test [5], 93%; in test [6] it was 78%.
For the compound `COc1ccc(C#Cn2c3c(c4cc(Cl)ccc42)CCN(C)CC3)cc1F` [Compound No. 283, 9-chloro-6-((3-fluoro-4-methoxyphenyl)ethynyl)-3-methyl-1,2,3,4,5,6-hexahydroazepino[4,5-b]indole], the inhibition at 1 µM in test [1] is 90%; in test [2], 12%; in test [3], 12%; in test [4] it was 100%; in test [5] it was 83%; in test [6] it was 40%.
